This passage reports IC50, GI50 and Activity results from ChEMBL document CHEMBL5052827, “Ash1l inhibitors and methods of treatment therewith” (2020).

Data set [1] has as its target Histone-lysine N-methyltransferase ASH1L (Homo sapiens, UniProt Q9NR48). The data set can be described thus: Inhibition of ASH1L SET-BAH construct (unknown origin) (2069 to 2833 residues) using SAM as substrate incubated for 1 hr and measured after 45 mins by Beckman scintillation counter method.
Data set [2] relates to K562. Nature of the data set: Antiproliferative activity against human K562 cells measured after 14 days by MTT assay. It is filed as functional. The conditions noted are these: K562, 336 h, time 14 day. (Tetrazolium dyes change colour on reduction, which living cells bring about.)
Data set [3] relates to MOLM-13. Nature of the data set: Antiproliferative activity against human MOLM-13 cells measured after 14 days by MTT assay. It is filed as functional. Particulars: MOLM-13, 336 h, time 14 day.
In data set [4] the test system is KOPN-8. Nature of the data set: Antiproliferative activity against human KOPN-8 cells measured after 14 days by MTT assay. In kind it is functional. Particulars: KOPN-8, 336 h, time 14 day.
For data set [5], the system named is MV4-11. Nature of the data set: Induction of human MV4-11 cell differentiation at 6 to 12 uM measured after 7 days. It is filed as functional, cell-based. The conditions noted are these: dose 6-12 µM, time 7.0 day.
Data set [6] can be described thus: Cytotoxicity against human CD34-positive cells. It is filed as toxicity, cell-based, CD34-positive (myeloid/lymphoid) cell.
For data set [7], the system named is MV4-11. Nature of the data set: Antiproliferative activity against human MV4-11 cells measured after 14 days by MTT assay. In kind it is functional. The conditions noted are these: MV4-11, 336 h, time 14 day.
In data set [8] the test system is SEM cells. The data set can be described thus: Antiproliferative activity against human SEM cells measured after 14 days by MTT assay. It is filed as functional. The conditions noted are these: 336 h, time 14 day.
Data set [9] has as its system MV4-11. Nature of the data set: Antitumor activity in human MV4-11-Luc cells xenografted female NSG mouse assessed as decrease in leukemia progression at 25 mg/kg, ip administered twice a day for 21 days. In kind it is functional, organism-based. The conditions noted are these: time 21.0 day. For orientation: A xenograft is tissue or cells of one species grown in another, often human tumour cells in immunodeficient mice.

Activity calls are given as the source filed them. The calls are words filed in the database; no cut-off is given here.

`NC(=S)c1cccc(-c2cn(C3CCN(S(=O)(=O)CCCNC(=O)CCCC[C@@H]4SC[C@@H]5NC(=O)N[C@@H]54)CC3)c3cc(CNC(=O)c4c[nH]c5ccccc45)ccc23)c1` showed an IC50 in data set [1] of less than 20 µM.
For `CC1CN(S(C)(=O)=O)CCC1n1cc(-c2cccc(C(N)=S)c2)c2ccc(N)cc21` (configuration not stated), the GI50 in data set [2] was more than 25 µM; in data set [3] it was 2.7 µM; in data set [4], 2.5 µM; in [6], more than 50 µM. Moreover, in data set [5], the outcome was Active.
Consider `CC(C)S(=O)(=O)N1CCC(n2cc(-c3cccc(C(N)=S)c3)c3ccc(CNc4nnc(N)s4)cc32)CC1`, for which the GI50 in data set [2] was more than 50 µM; in data set [3] it was 5.5 µM; in data set [4], 5 µM; in data set [7], 2500 nM; in [8], 2000 nM.
Consider `CCC(=O)Nc1ccc2c(-c3cccc(C(N)=S)c3)cn(C3CCN(S(=O)(=O)C(C)C)CC3)c2c1`, for which the IC50 in data set [1] was less than 20 µM.
In the case of `NC(=S)c1cccc(-c2cn(C3CCN(S(=O)(=O)C(F)(F)F)CC3)c3cc(NC(=O)CCOCCOCCOCCOCCOCCOCCNC(=O)CCCC[C@@H]4SC[C@@H]5NC(=O)N[C@@H]54)ccc23)c1`, the IC50 in data set [1] is less than 20 µM.
In the case of `NC(=S)c1cccc(-c2cn(C3CCN(S(=O)(=O)C(F)(F)F)CC3)c3cc(CNC(=O)[C@@H]4C[C@H](F)CN4)ccc23)c1`, the IC50 in data set [1] is less than 20 µM.
Turning to `Cc1cc(N2CCC(n3cc(-c4cccc(C(N)=S)c4)c4ccc(CNc5nnc(N)s5)cc43)CC2)n(C)n1`, the IC50 in data set [1] was less than 20 µM.
Regarding `CC1CN(S(C)(=O)=O)CCC1n1cc(-c2cccc(C(N)=S)c2)c2ccc(CNC(=O)C3CN(C)C3)cc21` (configuration not stated), in data set [1], the IC50 is less than 20 µM.
Still for that read-out and setting: the figure for `CC(C)S(=O)(=O)N1CCC(n2cc(-c3cccc(C(N)=S)c3)c3ccc(CNC(=O)C4CN(C)C4)cc32)CC1` is less than 20 µM.
The compound `COCCC(=O)Nc1ccc2c(-c3cccc(C(N)=S)c3)cn(C3CCC(F)(F)CC3)c2c1` yielded an IC50 in [1] of less than 20 µM.
The same measure, in the same setting: the figure for `NC(=S)c1cccc(-c2cn(C3CCN(c4nccs4)CC3)c3cc(CNC(=O)c4c[nH]c5ncccc45)ccc23)c1` is less than 20 µM; for `COc1ccc(Cn2cnc(NCc3ccc4c(-c5cccc(C(N)=S)c5)cn(C5CCOCC5)c4c3)c2[N+](=O)[O-])cc1` it is less than 20 µM; for `NC(=S)c1cccc(-c2cn(C3CCC(F)(F)CC3)c3c(Cl)c(N)ccc23)c1` it is less than 20 µM.
For the compound `CC(C)S(=O)(=O)N1CCC(n2cc(-c3cccc(C(N)=S)n3)c3ccc(CNc4nnc(N)s4)cc32)CC1`, the IC50 in data set [1] is less than 20 µM.
The compound `NC(=S)c1cccc(-c2cn(C3CCN(c4nccs4)CC3)c3cc(CNc4nnc(N)s4)ccc23)c1` registered an IC50 in data set [1] of less than 20 µM.
In turn, `CC(C)S(=O)(=O)N1CCC(n2cc(-c3cccc(C(N)=S)c3)c3ccc(CNC(=O)C4CCCN4)cc32)CC1` (configuration not stated) returned an IC50 in data set [1] of less than 20 µM.
In [1], `CS(=O)(=O)Nc1ccc2c(-c3cccc(C(N)=S)c3)cn(C3CCOCC3)c2c1` showed an IC50 of less than 20 µM.
The same measure, in the same setting: the figure for `COCCC(=O)Nc1ccc2c(-c3cccc(C(N)=S)c3)cn(CC(CF)CF)c2c1` is less than 20 µM; for `CS(=O)(=O)Nc1ccc2c(-c3cccc(C(N)=S)c3)cn(C3CCC(F)(F)CC3)c2c1` it is less than 20 µM; for `NC(=S)c1cccc(-c2cn(C3CCOCC3)c3cc(CNc4cc[nH]n4)ccc23)c1` it is less than 20 µM.
The compound `CS(=O)(=O)N1CCC(n2cc(-c3cccc(C(N)=S)c3)c3ccc(NC(=O)CCOCCOCCOCCOCCOCCOCCOCCOCCNC(=O)CCCC[C@@H]4SC[C@@H]5NC(=O)N[C@@H]54)cc32)CC1` showed an IC50 in data set [1] of less than 20 µM.
`CCCOC1CNC(C(=O)NCc2ccc3c(-c4cccc(C(N)=S)c4)cn(C4CCN(S(=O)(=O)C(C)C)CC4)c3c2)C1` (configuration not stated): in data set [1], the IC50 is less than 20 µM.
Same read-out and setting: as for `NC(=S)c1cccc(-c2cn(C3CCC(F)(F)CC3)c3cc(CNC(=O)C4CNC4)ccc23)c1`, the figure is less than 20 µM; as for `COc1ccc(Cn2cnc([N+](=O)[O-])c2NCc2ccc3c(-c4cccc(C(N)=S)c4)cn(C4CCOCC4)c3c2)cc1`, less than 20 µM.
Turning to `CNC(=O)NCc1ccc2c(-c3cccc(C(N)=S)c3)cn(C3CCN(S(=O)(=O)C(F)(F)F)CC3)c2c1`, the IC50 in [1] is less than 20 µM.
For the compound `COc1cccc2[nH]cc(-c3cccc(C(N)=S)c3)c12`, the IC50 in [1] is less than 20 µM.
In [1], `CS(=O)(=O)N1CC2CCC1CC2n1cc(-c2cccc(C(N)=S)c2)c2ccc(N)cc21` (configuration not stated) returned an IC50 of less than 20 µM.
Consider `CC1CC(n2cc(-c3cccc(C(N)=S)c3)c3ccc(N)cc32)CCN1S(C)(=O)=O` (configuration not stated), for which the IC50 in data set [1] is less than 20 µM.
The same measure, in the same setting: as for `CC(C)S(=O)(=O)N1CCC(n2cc(-c3cccc(C(N)=S)c3)c3ccc(N)cc32)CC1`, the figure is less than 20 µM.
The compound `CS(=O)(=O)N1CCC(n2cc(-c3cccc(C(N)=S)c3)c3ccc(NC(=O)CCCCCNC(=O)CCCC[C@@H]4SC[C@@H]5NC(=O)N[C@@H]54)cc32)CC1` returned an IC50 in [1] of less than 20 µM.
The compound `CC(=O)Nc1ccc2c(-c3cccc(C(N)=S)c3)cn(C3CCN(S(=O)(=O)C(F)(F)F)CC3)c2c1` yielded an IC50 in data set [1] of less than 20 µM.
The same measure, in the same setting: as for `CCC(=O)Nc1ccc2c(-c3cccc(C(N)=S)c3)cn(CC(CF)CF)c2c1`, the figure is less than 20 µM; as for `CS(=O)(=O)N1CCC(n2cc(-c3cccc(C(N)=S)c3)c3ccc(CNC(=O)Cc4c[nH]cn4)c(Cl)c32)CC1`, less than 20 µM; as for `NC(=S)c1cccc(-c2cn(C3CCN(S(=O)(=O)C(F)(F)F)CC3)c3cc(CNC(=O)C4CNCCN4)ccc23)c1` (configuration not stated), less than 20 µM.
`NC(=S)c1cccc(-c2cn(CC(CF)CF)c3cc(NC(=O)CCc4nccs4)ccc23)c1`: the IC50 in data set [1] is less than 20 µM.
Still for that read-out and setting: the figure for `CCCCCCN1CC(C(=O)NCc2ccc3c(-c4cccc(C(N)=S)c4)cn(C4CCN(S(=O)(=O)C(F)(F)F)CC4)c3c2)C1` is less than 20 µM; for `CC1CC(n2cc(-c3cccc(C(N)=S)c3)c3ccc(CNc4nnc(N)s4)cc32)CCO1` (configuration not stated) it is less than 20 µM.
`NC(=S)c1cccc(-c2cn(C3CCC(F)(F)CC3)c3cc(NC(=O)CCCCCNC(=O)c4ccc5c(c4)C(=O)OC54c5ccc(O)cc5Oc5cc(O)ccc54)ccc23)c1`: the IC50 in [1] is less than 20 µM.
In data set [1], `CN(C)c1cccc2c(S(=O)(=O)NCCCCCCCCC(=O)Nc3ccc4c(-c5cccc(C(N)=S)c5)cn(C5CCC(F)(F)CC5)c4c3)cccc12` gave an IC50 of less than 20 µM.
The same measure, in the same setting: the figure for `CN1CC(C(=O)NCc2ccc3c(-c4cccc(C(N)=S)c4)cn(C4CCN(S(=O)(=O)C(F)(F)F)CC4)c3c2Cl)C1` is less than 20 µM.
As to `CS(=O)(=O)N1CCC(n2cc(-c3cccc(C(N)=S)c3)c3ccc(NC(=O)CCCCCNC(=O)c4ccc5c(c4)C(=O)OC54c5ccc(O)cc5Oc5cc(O)ccc54)cc32)CC1`, in [1], the IC50 was less than 20 µM.
`NC(=S)c1cccc(-c2cn(CC(CF)CF)c3cc(NC(=O)Cc4nccs4)ccc23)c1` gave an IC50 in data set [1] of less than 20 µM.
Compound `CC1CN(S(C)(=O)=O)CCC1n1cc(-c2cccc(C(N)=S)c2)c2ccc(CNc3nnc(N)s3)cc21` (configuration not stated) returned an IC50 in data set [1] of less than 20 µM.
With `NC(=S)c1cccc(-c2cn(C3CCN(c4nccs4)CC3)c3cc(CNC(=O)C4CNC4)ccc23)c1`, the IC50 in data set [1] is less than 20 µM.
For `CCN1CC(C(=O)NCc2ccc3c(-c4cccc(C(N)=S)c4)cn(C4CCN(c5nccs5)CC4)c3c2)C1`, in data set [1], the IC50 is less than 20 µM.
Turning to `CC(C)S(=O)(=O)N1CCC(n2cc(-c3cccc(C(N)=S)c3)c3ccc(NC(=O)CCCC[C@@H]4SC[C@@H]5NC(=O)N[C@@H]54)cc32)CC1`, the half-inhibitory concentration (IC50) in data set [1] is less than 20 µM.
The same measure, in the same setting: as for `NC(=S)c1cccc(-c2cn(C3CCN(S(=O)(=O)C(F)(F)F)CC3)c3cc(CNc4nnc(N)s4)ccc23)c1`, the figure is less than 20 µM.
Compound `NC(=S)c1cccc(-c2cn(C3CCOCC3)c3cc(CNc4nnc(N)[nH]4)ccc23)c1` had an IC50 in data set [1] of less than 20 µM.
In data set [1], `NC(=S)c1cccc(-c2cn(C3CCN(S(=O)(=O)C(F)(F)F)CC3)c3cc(CNC(=O)[C@@H]4C[C@H](O)CN4)ccc23)c1` yielded an IC50 of less than 20 µM.
In data set [1], `CC(C)S(=O)(=O)N1CCC(n2cc(-c3cccc(C(N)=S)c3)c3ccc(CNC(=O)C4CCN4)cc32)CC1` (configuration not stated) gave an IC50 of less than 20 µM.
The same measure, in the same setting: the figure for `CC(C)S(=O)(=O)N1CCC(n2cc(-c3cccc(C(N)=S)c3)c3ccc(CNC(=O)C4CNC4)cc32)CC1` is less than 20 µM.
On to `NC(=S)c1cccc(-c2cn(C3CCN(S(=O)(=O)C(F)(F)F)CC3)c3cc(CNC(=O)C4CNC4)ccc23)c1`, for which, in data set [9], the result was Active.
`CCCCCCN1CC(C(=O)NCc2ccc3c(-c4cccc(C(N)=S)c4)cn(C4CCN(S(C)(=O)=O)CC4)c3c2)C1`: the IC50 in data set [1] is less than 20 µM.
On the same count and under the same terms, as for `C[C@@H]1CN[C@H](C(=O)NCc2ccc3c(-c4cccc(C(N)=S)c4)cn(C4CCN(S(=O)(=O)C(F)(F)F)CC4)c3c2)C1`, the figure is less than 20 µM.
For the compound `NC(=S)c1cccc(-c2cn(C3CCN(S(=O)(=O)C(F)(F)F)CC3)c3cc(CNC(=O)NCC4CCN4)ccc23)c1` (configuration not stated), the IC50 in data set [1] is less than 20 µM.
In turn, `CC(C)S(=O)(=O)N1CCC(n2cc(-c3cccc(C(N)=S)c3)c3ccc(N4CCCC4=O)cc32)CC1` displayed an IC50 in data set [1] of less than 20 µM.
Same read-out and setting: as for `CS(=O)(=O)N1CCC(n2cc(-c3cccc(C(N)=S)c3)c3ccc(NC(=O)CCOCCOCCOCCOCCNC(=O)CCCC[C@@H]4SC[C@@H]5NC(=O)N[C@@H]54)cc32)CC1`, the figure is less than 20 µM; as for `COCCN1CC(C(=O)NCc2ccc3c(-c4cccc(C(N)=S)c4)cn(C4CCN(S(C)(=O)=O)CC4)c3c2)C1`, less than 20 µM; as for `CCCOC1CCNC1C(=O)NCc1ccc2c(-c3cccc(C(N)=S)c3)cn(C3CCN(S(=O)(=O)C(C)C)CC3)c2c1` (configuration not stated), less than 20 µM.

For orientation: IC50 means the concentration that gives 50% inhibition. Lower therefore signals higher potency. One may read the GI50 as the concentration that inhibits growth by half.
